# According to patent publication US20160340633A1, “PLURIPOTENT STEM CELL EXPANSION AND PASSAGE USING A ROCKING PLATFORM BIOREACTOR” (General Electric Company, priority 2015, published 2016):
# Tested on: CT2 human embryonic stem cells
# Experiment: Expansion of slicer-passaged pluripotent stem cell aggregates cultured with or without Y27632 ROCK inhibitor
# Format: cell-based
# Procedure: In one example, aggregate formation and cell expansion was measured after passage with Accutase™ or with the square grid or hexagon grid slicer. After passaging, CT2 human embryonic stem cells were seeded in 6 well plates in 2 ml mTeSR1 at either 4×10̂5 cells per mL or 1.5×10̂6 cells per mL, with or without 10 uM Y27632 ROCK inhibitor. The plates were maintained on a Boekel Scientific Rocker II 260350 rocker platform in a standard cell culture incubator at 37 degrees C., 5% CO2, with culture conditions of 20 rocks per minute at a 15 degree rock angle. Aggregates formed from the accutased cells after overnight culture. Each day, the spent mTeSR1 was completely removed and replaced with fresh mTeSR1 without Y27632 ROCK inhibitor. On day 4, the aggregates were recovered, dissociated with Accutase™ and enumerated using a Nucleocounter NC200. […]
# Aggregates were passed across the slicer in a flow stream consisting of 100 mL to 1 L volumes. […] The cell aggregate concentration used to pass through the slicer was determined to influence the recovery of sliced cell aggregates at high viability. […] It was determined that slicing of cell aggregate concentrations below about 3×10̂6 cells per mL produced higher viability samples with higher recovery than cell concentrations greater than about 3×10̂6 cells per mL. […]
structure (smiles),measurement,setting,value
"C[C@@H](N)[C@H]1CC[C@H](C(=O)Nc2ccncc2)CC1 [Y27632 ROCK inhibitor, Y-27632]",expansion rates of slicer passaged aggregates cultured with or without Y27632 ROCK inhibitor,"10 uM at seeding, 4×10^5 or 1.5×10^6 cells per mL, 6 well plates, rocking, counted day 4, square or hexagon grid slicer",similar
same,requirement of Y27632 ROCK inhibitor for expansion of sliced pluripotent stem cell aggregates,"sliced aggregates in mTeSR1, optionally 1 to 10 uM, unlike enzymatically passaged aggregates",not required
